The values that follow come from patent US20240316074A1 (priority 2021, published 2024).

What all share (assay type): cell-based
In test [1] the test system is SARS-CoV-2 variant B.1.1.7. Briefly: microbe, parasite or virus in culture. The note with it: Severe acute respiratory syndrome coronavirus 2, Vero C1008.
The test system of test [2] is SARS-CoV-2 variant B.1.351. Briefly: microbe, parasite or virus in culture. The note with it: Severe acute respiratory syndrome coronavirus 2, Vero C1008.
The test system of test [3] is SARS-CoV-2 spike pseudotyped lentivirus. Briefly: organism not typed. The note with it: HEK-293T, read-out: IC50, concentration which reduced pseudovirus infections by half.

≈ marks a conversion by molar mass, not a printed value.

Turning to `C=C(C)[C@@H]1CCC(C)=C[C@H]1c1c(O)cc(CCCCC)c(C(=O)O)c1O` [CBDA, Cannabidiolic acid], the figures for the IC50 in test [1], in test [2] and in test [3] were 11 µg/mL (≈ 30.7 µM), 19 µg/mL (≈ 53 µM) and 7.7 µg/mL (≈ 21.5 µM), respectively.

For the compound `CCCCCc1cc(O)c(C/C=C(\C)CCC=C(C)C)c(O)c1C(=O)O` [CBGA, Cannabigerolic acid], the IC50 in test [1] worked out at 26 µg/mL (≈ 72.1 µM); in test [2] it was 37 µg/mL (≈ 103 µM); in test [3], 8.4 µg/mL (≈ 23.3 µM).
